The text below walks through data of patent publication US20170020838A1, “TREATMENT FOR RESPIRATORY DISEASE” (MUCOKINETICA LIMITED, priority 2014, published 2017).

For experiment [1], the system named is ciliary transport of pig airway mucus secretions on the ex vivo trachea of transgenic CF piglets. Description: Ciliary transport of mucus secretions on ex vivo trachea of transgenic CF piglets. Also noted: speed of ciliary transport at the first three time points (25, 40 and 55 min), day 1: dose or concentration left out as unconfirmed. How it is done: FIG. 13 Study of the effects of 6-amidino-2-napthyl 4-guanidinobenzoate in BSS, and a combination of hyperosmotic saline and 6-amidino-2-napthyl 4-guanidinobenzoate in BSS on ciliary transport of pig airway mucus secretions on the ex vivo trachea of transgenic CF piglets. Transgenic CF piglets were produced as described by Klymiuk et al. 2012, and tracheas obtained at a Veterinary University. Study methods were otherwise as described in FIG. 10. Ciliary transport index (mean) was measured over two days with a second treatment period at the start of the second day.
Pig tracheas (from larynx to carina) from normal wild type animals were obtained from a local abattoir or Veterinary University. Transgenic CF piglets were produced as described by Klymiuk et al. 2012, and tracheas were obtained at a Veterinary University. The lumen of each trachea was cleaned by gentle irrigation with BSS. Tracheas were opened longitudinally with scissors along the posterior aspect and mounted with the posterior aspect upwards in a moist air-tight box. An aliquot of pig airway mucus approximately 3 mm diameter was placed on the mucosal surface close to the distal end of each trachea. Tracheal mucus velocity (TMV mm/min) was measured by recording the distance moved, towards the laryngeal end of the trachea, in a given time. At the start of a study three measurements of TMV were made for each trachea to establish a baseline rate for the trachea. Solutions were then pipetted onto the luminal mucosal surface of tracheas for 10 min. Then excess solution was tipped off the mucosal surface and measurement of TMV repeated. TMV results at each time point are expressed as % of the baseline TMV, ciliary transport index (mean±SD).

Another experiment concerns kidney sodium channel. The settings on record: cortical collecting duct of the rabbit kidney; Muto et al. 1993; cited from earlier work.

With `N=C(N)Nc1ccc(C(=O)Oc2ccc3cc(C(=N)N)ccc3c2)cc1` [6-amidino-2-napthyl 4-guanidinobenzoate], in experiment [1] (in BSS, 10 min), the “speed of ciliary transport at the first three time points (25, 40 and 55 min), day 1” value is reported as “no increase in speed”. Moreover, the “speed of ciliary transport at the first time point (25 min), day 2” value in experiment [1] (second 10 min treatment with 10^−5 M at 14 h 10 min) is on record as “No increase in speed”. In addition, in experiment [1] (transgenic CF pig tracheas), the “onset and duration profile of increased ciliary transport, both days” value is on record as “slow-onset long duration”. Also, the “action on the kidney sodium channel” value in the experiment on kidney sodium channel is given as “weak, short acting inhibitor”.
